Results reported in patent US20240158740A1, “CELL CLUSTER PRODUCTION METHOD” (National University Corporation Tokyo Medical and Dental …, priority 2021, published 2024).

Tests used:
Format in all cases: cell-based
[1] = test system: Human iPS cells (625A4) colonies; assay: Differentiation marker analysis of cell cluster by immunocytostaining after Wnt signal-activating culture step (Day 2)
Procedure: Human iPS cells (625A4; Center for iPS Cell Research and Application (CiRA), Kyoto University) were cultured at 37° C. for 6 to 7 days under 5% CO2 in AK02N (Ajinomoto Co., Inc.) (10 cm dish; 8 ml, 24-well plate; 0.5 ml) to form iPS cell colonies of 500 to 700 μm in diameter. The obtained colonies were cultured at 37° C. for 2 days under 5% CO2 in Essential 8 medium (Gibco) (10 cm dish; 8 ml, 24-well plate; 0.5 ml) supplemented with BMP4 (80 ng/ml), VEGF (80 ng/ml), and CHIR99021 (2 μM) (Days 0 to 2). iPS cell colonies were formed as a control in the same manner as in [1] and [2]. Then, the obtained colonies were cultured at 37° C. for 2 days under 5% CO2 in Essential 8 medium (Gibco) (10 cm dish; 8 ml, 24-well plate; 0.5 ml) supplemented with BMP4 (80 ng/ml) and VEGF (80 ng/ml) (Days 0 to 2). After induction of differentiation in the step of Days 0 to 2 in [1] or [2], the medium was removed, and the cells were washed once with PBS(−) (Gibco). Then, 4% paraformaldehyde was added at a volume of 500 μl/24 wells to the cells and left at room temperature for 15 minutes. Then, the cells were washed three times with PBS(−) and preserved overnight at 4° C. Then, PROTEIN BLOCK SERUM-FREE blocking solution [DAKO, X909] was added at a volume of 500 μl/24 wells to the cells and left at room temperature for 60 minutes for blocking. Then, a primary antibody ( 1/100 Anti-GATA6 (Abcam plc, ab22600), 1/50 Anti-Brachyury T (R&D Systems, Inc., AF2085), 1/400 Anti-Sox2 (CST, 3579P2), 1/100 Anti-CDX2 (R&D Systems, Inc., MAB3665), and 1/50 Anti-AP-2a (Santa Cruz Biotechnology Inc., sc-12726)) against the target antigen was added to a 1% blocking solution in PBS(−). The primary antibody solution was added at a volume of 500 μl/24 wells and left standing at room temperature for 60 minutes or overnight at 4° C. Subsequently, the cells were washed three times with PBS(−). […] The processing of the obtained images and quantitative analysis were carried out using image analysis software “Fiji”.

[2] = test system: Human iPS cells (625A4) derived cell population; assay: Differentiation marker analysis of cell population by immunocytostaining (Brachyury, CD34; Day 6); conditions: cell cluster obtained with CHIR99021 2 μM (Days 0 to 2), further differentiated; cell population of Day 6
Procedure: Following the preparation of human yolk sac mesoderm cells in [1], the medium was replaced with Essential 6 medium (Gibco) (10 cm dish; 8 ml) supplemented with VEGF (80 ng/ml), FGF2 (25 ng/ml), SCF (50 ng/ml), and SB431542 (2 μM), and hemangioblasts were induced by further culture at 37° C. for 2 days under 5% CO2. Then, the medium was replaced with Stempro-34 SFM (Gibco) (10 cm dish; 8 ml) supplemented with VEGF (80 ng/ml), SCF (50 ng/ml), Flt-3L (50 ng/ml), IL-3 (50 ng/ml), IL-6 (50 ng/ml), and TPO (5 ng/ml), and the cells were cultured at 37° C. for 2 days under 5% CO2. Then, the medium was replaced with a medium of the composition described above except for VEGF, and CD34-positive and CD32-positive vitelline venous hemogenic endothelial cells were induced by culture at 37° C. for 2 days under 5% CO2. After induction of differentiation of the step of Days 4 to 6 in [4], immunocytostaining was performed by the same procedures as in [3] except that the primary antibody used was changed to 1/50 Anti-CD34 (Abcam plc, ab81289).

[3] = test system: Human iPS cells (625A4) derived cell population; assay: Differentiation marker analysis using flow cytometry (CD34, CD32; Day 8); conditions: cell cluster obtained with CHIR99021 2 μM (Days 0 to 2), further differentiated; cell population of Day 8; compared with control (−)
Procedure: Following the preparation of human yolk sac mesoderm cells in [1], the medium was replaced with Essential 6 medium (Gibco) (10 cm dish; 8 ml) supplemented with VEGF (80 ng/ml), FGF2 (25 ng/ml), SCF (50 ng/ml), and SB431542 (2 μM), and hemangioblasts were induced by further culture at 37° C. for 2 days under 5% CO2. Then, the medium was replaced with Stempro-34 SFM (Gibco) (10 cm dish; 8 ml) supplemented with VEGF (80 ng/ml), SCF (50 ng/ml), Flt-3L (50 ng/ml), IL-3 (50 ng/ml), IL-6 (50 ng/ml), and TPO (5 ng/ml), and the cells were cultured at 37° C. for 2 days under 5% CO2. Then, the medium was replaced with a medium of the composition described above except for VEGF, and CD34-positive and CD32-positive vitelline venous hemogenic endothelial cells were induced by culture at 37° C. for 2 days under 5% CO2. After induction of differentiation of vitelline venous hemogenic endothelial cells by the step of Days 6 to 8 in [4], the medium was removed, and the cells were washed twice with PBS(−) (Gibco). Then, TrypLE Express (Gibco) was added at a volume of 3 mL/dish and left at 37° C. for 15 minutes. Then, the cells were recovered into a 15 mL tube while dissociated by pipetting with P1000 micropipette. […] The differentiation markers were analyzed by BD LSRFortessa flow cytometry using the obtained antibody-stained cell suspension. Data obtained from flow cytometry was analyzed using FlowJo.

[4] = test system: Human iPS cells (625A4) colonies; assay: Differentiation marker analysis of cell cluster by immunocytostaining after Wnt signal-inhibiting culture step (Day 2); conditions: cell cluster of Day 2
Procedure: Human iPS cells (625A4; Center for iPS Cell Research and Application (CiRA), Kyoto University) were cultured at 37° C. for 6 to 7 days under 5% CO2 in AK02N (Ajinomoto Co., Inc.) (10 cm dish; 8 ml, 24-well plate; 0.5 ml) to form iPS cell colonies of 500 to 700 μm in diameter. The obtained colonies were cultured at 37° C. for 2 days under 5% CO2 in Essential 8 medium (Gibco) (10 cm dish; 8 ml, 24-well plate; 0.5 ml) supplemented with BMP4 (80 ng/ml), VEGF (80 ng/ml), and IWP-2 (2 μM) (Days 0 to 2).
iPS cell colonies were formed as a control in the same manner as in [1] and [2]. Then, the obtained colonies were cultured at 37° C. for 2 days under 5% CO2 in Essential 8 medium (Gibco) (10 cm dish; 8 ml, 24-well plate; 0.5 ml) supplemented with BMP4 (80 ng/ml) and VEGF (80 ng/ml) (Days 0 to 2).
After induction of differentiation in the step of Days 0 to 2 in [1] or [2], the medium was removed, and the cells were washed once with PBS(−) (Gibco). Then, 4% paraformaldehyde was added at a volume of 500 μl/24 wells to the cells and left at room temperature for 15 minutes. Then, the cells were washed three times with PBS(−) and preserved overnight at 4° C. Then, PROTEIN BLOCK SERUM-FREE blocking solution [DAKO, X909] was added at a volume of 500 μl/24 wells to the cells and left at room temperature for 60 minutes for blocking. Then, a primary antibody ( 1/100 Anti-GATA6 (Abcam plc, ab22600), 1/50 Anti-Brachyury T (R&D Systems, Inc., AF2085), 1/400 Anti-Sox2 (CST, 3579P2), 1/100 Anti-CDX2 (R&D Systems, Inc., MAB3665), and 1/50 Anti-AP-2a (Santa Cruz Biotechnology Inc., sc-12726)) against the target antigen was added to a 1% blocking solution in PBS(−). The primary antibody solution was added at a volume of 500 μl/24 wells and left standing at room temperature for 60 minutes or overnight at 4° C. Subsequently, the cells were washed three times with PBS(−). […] The processing of the obtained images and quantitative analysis were carried out using image analysis software “Fiji”.

Compound	Enrichment of Brachyury-negative, GATA6-positive, and FOXF1-positive YSMCs in the cell cluster ([1]; CHIR99021 2 μM with BMP4 and VEGF in Essential 8, Days 0 to 2, cell cluster of Day 2, compared with no addition (−))	Morphology of the cell cluster under an optical microscope versus cell cluster obtained by a conventional method ([1]; CHIR99021 2 μM, 2 days after the start of culture)	GATA6 status of the CDX2-negative region (+CHIR) ([1]; CHIR99021 2 μM, Days 0 to 2, cell cluster of Day 2)	Appearance of CD34-positive vascular endothelial progenitor cells from YSM region in the outer edge part [2]	CD34-positive and CD32-positive vitelline venous hemogenic endothelial cells produced [3]	GATA6-positive cells in an outer edge part of the cell cluster ([4]; 2 μM, Days 0 to 2, compared with +CHIR)	Enrichment of CDX2-positive and TFAP2A-positive AECs in the cell cluster ([4]; IWP-2 2 μM with BMP4 and VEGF in Essential 8, Days 0 to 2, compared with no addition (−))	GATA6 status of the CDX2-positive region (+IWP-2) ([4]; IWP-2 2 μM, Days 0 to 2)
Cc1c[nH]c(-c2cnc(NCCNc3ccc(C#N)cn3)nc2-c2ccc(Cl)cc2Cl)n1 [CHIR99021]	enriched	differ morphologically	GATA6-positive	Rich CD34-positive vascular endothelial progenitor cells were confirmed to appear	more			
Cc1ccc2nc(NC(=O)CSc3nc4c(c(=O)n3-c3ccccc3)SCC4)sc2c1 [IWP-2]						small number of GATA6-positive cells	enriched	GATA6-negative
